Measurements: US8952024B2, “Herbicidal pyrimidone derivatives” (E I du Pont de Nemours and Company, priority 2009, dated 2015)

Columns and labels:
Format in all cases: in vivo
[1] = test system: pigweed (Amaranthus retroflexus); assay: Test B pre-/postemergence plant response
How it was run: (§1)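 Visual injury, 0–100 scale (100 = complete control), rated against controls after 13 to 15 days in greenhouse. Pre-emergence: seeds in loam/sand soil, treated at planting. Post-emergence: 1- to 4-leaf plants (2 to 18 cm) in peat/vermiculite medium. Compounds formulated in non-phytotoxic solvent with surfactant.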

soybean (Glycine max) = assay: Test B pre-/postemergence plant response
How it was run: as §1

[2] = test system: velvetleaf (Abutilon theophrasti); assay: Test B pre-/postemergence plant response
How it was run: as §1

[3] = test system: bermudagrass (Cynodon dactylon); assay: Test B pre-/postemergence plant response
How it was run: as §1

[4] = test system: morningglory (Ipomoea coccinea); assay: Test B pre-/postemergence plant response
How it was run: as §1

[5] = test system: goosegrass (Eleusine indica); assay: Test B pre-/postemergence plant response
How it was run: as §1

corn (Zea mays) = assay: Test B pre-/postemergence plant response
How it was run: as §1

[6] = test system: giant foxtail (Setaria faberii); assay: Test B pre-/postemergence plant response
How it was run: as §1

[7] = test system: blackgrass (Alopecurus myosuroides); assay: Test B pre-/postemergence plant response
How it was run: as §1

[8] = test system: green foxtail (Setaria viridis); assay: Test B pre-/postemergence plant response
How it was run: as §1

[9] = test system: wheat (Triticum aestivum); assay: Test B pre-/postemergence plant response
How it was run: as §1

[10] = test system: johnsongrass (Sorghum halepense); assay: Test B pre-/postemergence plant response
How it was run: as §1

[11] = test system: Italian ryegrass (Lolium multiflorum); assay: Test B pre-/postemergence plant response
How it was run: as §1

[12] = test system: downy bromegrass (Bromus tectorum); assay: Test B pre-/postemergence plant response
How it was run: as §1

[13] = test system: ragweed (common ragweed, Ambrosia elatior); assay: Test B pre-/postemergence plant response
How it was run: as §1

[14] = test system: canarygrass (Phalaris minor); assay: Test B postemergence plant response
How it was run: (§2)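 Plants at the 1- to 4-leaf stage (2 to 18 cm tall), grown in pots of peat moss/vermiculite medium with wetting agent and starter nutrients, received postemergence applications of test chemicals. After 13 to 15 days in a greenhouse, injury was rated visually against untreated controls on a 0 (no effect) to 100 (complete control) scale.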

[15] = test system: chickweed (Stellaria media); assay: Test B postemergence plant response
How it was run: as §2

[16] = test system: winter barley (Hordeum vulgare); assay: Test B postemergence plant response
How it was run: as §2

[17] = 31 g ai/ha, postemergence, scale 0 to 100, 0 is no effect, 100 is complete control
[18] = 62 g ai/ha, postemergence, 0 is no effect, 100 is complete control, 13 to 15 days
[19] = Postemergence, 125 g ai/ha, visual rating after 13 to 15 days, scale 0 (no effect) to 100 (complete control)
[20] = Postemergence, 250 g ai/ha, scale 0 to 100 (0 no effect, 100 complete control)
[21] = Preemergence, 31 g ai/ha, scale 0 to 100 (0 no effect, 100 complete control)
[22] = Preemergence, 62 g ai/ha, scale 0 to 100, 0 no effect, 100 complete control
[23] = Preemergence, 125 g ai/ha, scale 0 to 100, 0 no effect, 100 complete control
[24] = 250 g ai/ha, Preemergence, 0 to 100 scale

With `CC(C)Cc1ncc(C(=O)C2=C(O)CCCC2=O)c(=O)n1-c1ccccc1` [Compound 68] the “Plant response rating, Pigweed” value [1, 17] was 85, the “Pigweed plant response rating (0 to 100 scale)” value [1, 18] was 95 and the “Plant response rating, Pigweed” value [1, 19] was 100. The “Plant response rating, Pigweed” value [1, 20] was 100, the “Plant response rating, Pigweed” value [1, 21] was 95 and the “Plant response rating, Pigweed” value [1, 22] was 98. The “Plant response rating, Pigweed” value [1, 23] was 100, the “Plant response rating, Soybean” value (soybean (Glycine max); [17]) was 80 and the “Soybean plant response rating (0 to 100 scale)” value (soybean (Glycine max); [18]) was 95. For the same compound, the “Plant response rating, Soybean” value (soybean (Glycine max); [19]) was 98, the “Plant response rating, Soybean” value (soybean (Glycine max); [20]) was 98 and the “Plant response rating, Velvetleaf” value [2, 17] was 95. The “Velvetleaf plant response rating (0 to 100 scale)” value [2, 18] was 100, the “Plant response rating, Velvetleaf” value [2, 19] was 100 and the “Plant response rating, Velvetleaf” value [2, 20] was 100. The “Plant response rating, Velvetleaf” value [2, 21] was 95, the “Plant response rating, Velvetleaf” value [2, 22] was 100 and the “Plant response rating, Velvetleaf” value [2, 23] was 100. For the same compound, the “Plant response rating, Bermudagrass” value [3, 17] was 75, the “Bermudagrass plant response rating (0 to 100 scale)” value [3, 18] was 75 and the “Plant response rating, Bermudagrass” value [3, 24] was 100. For the same compound, the “Plant response rating, Bermudagrass” value [3, 19] was 95, the “Plant response rating, Bermudagrass” value [3, 20] was 98 and the “Plant response rating, Bermudagrass” value [3, 21] was 95. The “Plant response rating, Bermudagrass” value [3, 22] was 98, the “Plant response rating, Bermudagrass” value [3, 23] was 98 and the “Plant response rating, Morningglory” value [4, 17] was 80. For the same compound, the “Morningglory plant response rating (0 to 100 scale)” value [4, 18] was 85, the “Plant response rating, Morningglory” value [4, 19] was 98 and the “Plant response rating, Morningglory” value [4, 20] was 100. For the same compound, the “Plant response rating, Morningglory” value [4, 21] was 0, the “Plant response rating, Morningglory” value [4, 22] was 55 and the “Plant response rating, Morningglory” value [4, 23] was 65. The “Plant response rating, Goosegrass” value [5, 17] was 65, the “Goosegrass plant response rating (0 to 100 scale)” value [5, 18] was 70 and the “Plant response rating, Goosegrass” value [5, 24] was 98. The “Plant response rating, Goosegrass” value [5, 19] was 85, the “Plant response rating, Goosegrass” value [5, 20] was 95 and the “Plant response rating, Goosegrass” value [5, 21] was 80. For the same compound, the “Plant response rating, Goosegrass” value [5, 22] was 95, the “Plant response rating, Goosegrass” value [5, 23] was 98 and the “Plant response rating, Corn” value (corn (Zea mays); [17]) was 0. The “Corn plant response rating (0 to 100 scale)” value (corn (Zea mays); [18]) was 15, the “Plant response rating, Corn” value (corn (Zea mays); [24]) was 0 and the “Plant response rating, Corn” value (corn (Zea mays); [19]) was 80. For the same compound, the “Plant response rating, Corn” value (corn (Zea mays); [20]) was 80, the “Plant response rating, Corn” value (corn (Zea mays); [21]) was 0 and the “Plant response rating, Corn” value (corn (Zea mays); [22]) was 0. For the same compound, the “Plant response rating, Corn” value (corn (Zea mays); [23]) was 0, the “Plant response rating, Foxtail, Giant” value [6, 17] was 65 and the “Foxtail, Giant plant response rating (0 to 100 scale)” value [6, 18] was 80. For the same compound, the “Plant response rating, Foxtail, Giant” value [6, 24] was 75, the “Plant response rating, Foxtail, Giant” value [6, 19] was 85 and the “Plant response rating, Foxtail, Giant” value [6, 20] was 90. The “Plant response rating, Foxtail, Giant” value [6, 21] was 0, the “Plant response rating, Foxtail, Giant” value [6, 22] was 20 and the “Plant response rating, Foxtail, Giant” value [6, 23] was 55. For the same compound, the “Plant response rating, Blackgrass” value [7, 17] was 0, the “Blackgrass plant response rating (0 to 100 scale)” value [7, 18] was 0 and the “Plant response rating, Blackgrass” value [7, 24] was 5. For the same compound, the “Plant response rating, Blackgrass” value [7, 19] was 0, the “Plant response rating, Blackgrass” value [7, 20] was 20 and the “Plant response rating, Blackgrass” value [7, 21] was 0. For the same compound, the “Plant response rating, Blackgrass” value [7, 22] was 0, the “Plant response rating, Blackgrass” value [7, 23] was 0 and the “Plant response rating, Foxtail, Green” value [8, 17] was 40. The “Foxtail, Green plant response rating (0 to 100 scale)” value [8, 18] was 85, the “Plant response rating, Foxtail, Green” value [8, 24] was 85 and the “Plant response rating, Foxtail, Green” value [8, 19] was 85. For the same compound, the “Plant response rating, Foxtail, Green” value [8, 20] was 95, the “Plant response rating, Foxtail, Green” value [8, 21] was 0 and the “Plant response rating, Foxtail, Green” value [8, 22] was 5. The “Plant response rating, Foxtail, Green” value [8, 23] was 25, the “Plant response rating, Wheat” value [9, 17] was 5 and the “Wheat plant response rating (0 to 100 scale)” value [9, 18] was 5. For the same compound, the “Plant response rating, Wheat” value [9, 19] was 5, the “Plant response rating, Wheat” value [9, 20] was 10 and the “Plant response rating, Wheat” value [9, 21] was 0. The “Plant response rating, Wheat” value [9, 22] was 0, the “Plant response rating, Wheat” value [9, 23] was 0 and the “Plant response rating, Johnsongrass” value [10, 17] was 10. The “Johnsongrass plant response rating (0 to 100 scale)” value [10, 18] was 10, the “Plant response rating, Johnsongrass” value [10, 24] was 95 and the “Plant response rating, Johnsongrass” value [10, 19] was 75. For the same compound, the “Plant response rating, Johnsongrass” value [10, 20] was 100, the “Plant response rating, Johnsongrass” value [10, 21] was 0 and the “Plant response rating, Johnsongrass” value [10, 22] was 5. The “Plant response rating, Johnsongrass” value [10, 23] was 75, the “Plant response rating, Ryegrass, Italian” value [11, 17] was 5 and the “Ryegrass, Italian plant response rating (0 to 100 scale)” value [11, 18] was 5. For the same compound, the “Plant response rating, Ryegrass, Italian” value [11, 19] was 15, the “Plant response rating, Ryegrass, Italian” value [11, 20] was 50 and the “Plant response rating, Ryegrass, Italian” value [11, 21] was 0. For the same compound, the “Plant response rating, Ryegrass, Italian” value [11, 22] was 0, the “Plant response rating, Ryegrass, Italian” value [11, 23] was 0 and the “Plant response rating, Bromegrass, Downy” value [12, 17] was 5. For the same compound, the “Bromegrass, Downy plant response rating (0 to 100 scale)” value [12, 18] was 5, the “Plant response rating, Bromegrass, Downy” value [12, 24] was 5 and the “Plant response rating, Bromegrass, Downy” value [12, 19] was 25. The “Plant response rating, Bromegrass, Downy” value [12, 20] was 40, the “Plant response rating, Bromegrass, Downy” value [12, 21] was 0 and the “Plant response rating, Bromegrass, Downy” value [12, 22] was 0. For the same compound, the “Plant response rating, Bromegrass, Downy” value [12, 23] was 0, the “Plant response rating, Ragweed” value [13, 17] was 75 and the “Ragweed plant response rating (0 to 100 scale)” value [13, 18] was 80. The “Plant response rating, Ragweed” value [13, 19] was 80, the “Plant response rating, Ragweed” value [13, 20] was 95 and the “Plant response rating, Ragweed” value [13, 21] was 10. For the same compound, the “Plant response rating, Ragweed” value [13, 22] was 75, the “Plant response rating, Ragweed” value [13, 23] was 80 and the “Plant response rating, Canarygrass” value [14, 17] was 0. The “Canarygrass plant response rating (0 to 100 scale)” value [14, 18] was 0, the “Plant response rating, Canarygrass” value [14, 19] was 35 and the “Plant response rating, Canarygrass” value [14, 20] was 35. For the same compound, the “Plant response rating, Chickweed” value [15, 17] was 85, the “Chickweed plant response rating (0 to 100 scale)” value [15, 18] was 90 and the “Plant response rating, Chickweed” value [15, 19] was 98. For the same compound, the “Plant response rating, Chickweed” value [15, 20] was 100, the “Plant response rating, Barley” value [16, 17] was 0 and the “Barley plant response rating (0 to 100 scale)” value [16, 18] was 0. For the same compound, the “Plant response rating, Barley” value [16, 19] was 25 and the “Plant response rating, Barley” value [16, 20] was 30.
